16 compounds from ChEMBL document CHEMBL4308823, “Small Molecule Mitochondrial Uncouplers and Their Therapeutic Potential” (J Med Chem, 2018) can be followed below.

The nature of data set [1]: Dissociation constant, pKa of compound.
Data set [2] has as its system Mus musculus. Kind of data set: Antiobesity activity in high fat diet-induced obese C57BL/6J mouse assessed as reduction in body fat mass at 5 mg/kg, po administered via gavage treated 3 times per week for 6 weeks relative to control. Type of data set: functional. Details: scale not given: the % may be the effect or the level left.
Data set [3] deals with HL-60. Kind of data set: Cytotoxicity against human HL60 cells after 24 to 48 hrs by MTT assay. Type of data set: cell-based. A general note: Formazan colour is commonly taken as a measure of viable cells.
Data set [4] concerns Mus musculus. Put plainly: Antiobesity activity in high fat diet-induced obese C57BL/6J mouse assessed as reduction in body weight at 5 mg/kg, po administered via gavage treated 3 times per week for 6 weeks relative to control. Type of data set: functional. Details: scale not given: the % may be the effect or the level left.
A short description of data set [5]: Toxicity in rat. The settings on record: in vivo.
Data set [6] concerns 143B. Put plainly: Cytotoxicity against human 143B cells after 24 hrs by LDH release assay. Type of data set: cell-based. For orientation: LDH in the medium is a marker of cell lysis.
A short description of data set [7]: Mitochondrial uncoupling activity in Arabidopsis root cells assessed as inhibition of clathrin-mediated endocytosis by measuring reduction of FM4-64 uptake. Type of data set: functional, mitochondria, Arabidopsis thaliana, Mitochondria.
Data set [8] is described as follows: Toxicity in dog. The arrangement: species or system Canis lupus familiaris. The settings on record: in vivo.
A short description of data set [9]: Toxicity in human assessed as weight loss.
Data set [10] is described as follows: Toxicity in po dosed rat. The format is organism-based. The settings on record: in vivo.
The nature of data set [11]: Acute toxicity in C57BL/6J mouse administered via oral gavage. As to conditions: in vivo.
Data set [12] concerns Mus musculus. Kind of data set: Antiobesity activity in high fat diet-induced obese C57BL/6 mouse assessed as reduction in fat mass at 50 umol/kg/day for 16 days relative to control. Type of data set: functional. The arrangement: scale not given: the % may be the effect or the level left.
In data set [13] the test system is Mus musculus. Put plainly: Antiobesity activity in high fat diet-induced obese C57BL/6 mouse assessed as reduction in body weight at 50 umol/kg/day for 16 days relative to control. The arrangement: scale not given: the % may be the effect or the level left. Type of data set: functional.
The subject of data set [14] is Liver. Put plainly: Mitochondrial uncoupling activity in mouse liver mitochondria assessed as effect on succinoxldase coupled phosphorylation. Type of data set: functional.
Data set [15] is described as follows: in vivo. As to conditions: mouse.
In data set [16] the test system is C2C12. Kind of data set: Cytotoxicity against mouse C2C12 cells after overnight incubation. The format is cell-based.
The test system of data set [17] is HCT-116. Kind of data set: Cytotoxicity against human HCT116 cells after 48 hrs by MTT assay. The format is cell-based. The settings on record: HCT-116, 48 h.
For data set [18], the system named is Hepatocyte. Kind of data set: Cytotoxicity against Sprague-Dawley rat hepatocytes after 24 hrs by MTT assay. The format is cell-based.
The nature of data set [19]: Acute toxicity in po dosed mouse. The format is organism-based. As to conditions: in vivo.
Data set [20] deals with Mus musculus. Kind of data set: Anorectic activity in C57Bl/6J mouse assessed as reduction in fat mass at 30 umol/kg for 6 consecutive days relative to control. Type of data set: functional. Details: scale not given: the % may be the effect or the level left.
Data set [21] is described as follows: Uncoupling activity in rat mitochondria assessed as increase in oxygen consumption by mitochondrial respiration assay. The format is functional.
The test system of data set [22] is Mus musculus. Kind of data set: Anorectic activity in C57Bl/6J mouse assessed as reduction in body weight at 30 umol/kg for 6 consecutive days relative to control. Details: scale not given: the % may be the effect or the level left. The format is functional.

On to `O=[N+]([O-])c1cc(CCC[P+](c2ccccc2)(c2ccccc2)c2ccccc2)cc([N+](=O)[O-])c1O`, for which the pKa in data set [1] came out at 4.48.

On to `O=C(Nc1cc(Cl)cc(Cl)c1)Nc1cc(Cl)cc(Cl)c1`, for which the values for the Activity in [2], in data set [3] and in data set [4] were 35%, above 25 µM and 16%, respectively.

`CCCCN1CCCCC1C(=O)Nc1c(C)cccc1C` (configuration not stated) [BUPIVACAINE] gave a pKa in [1] of 8.1. The compound further came in with an LD50 in [5] of 4.25 to 12.7 mg/kg.

For `COC1=C(OC)C(=O)C(CCCCCCCCCC[P+](c2ccccc2)(c2ccccc2)c2ccccc2)=C(C)C1=O` [MITOQUINONE CATION], in data set [6], the Activity was above 10 µM.

With `O=[N+]([O-])c1ccc(NS(=O)(=O)c2ccc(Br)s2)cc1`, in data set [7], the IC50 is 5000 nM.

Consider `O=[N+]([O-])c1ccc(O)c([N+](=O)[O-])c1` [2,4-DINITROPHENOL], for which the LD50 in data set [8] and in data set [10] was 30 mg/kg in each case. For the same compound, in data set [1], the pKa stood at 4.1. In addition, in [9], the LD is 0.8 to 3 g.

In [11], `CCOC(=O)C1=C(C)N=c2s/c(=C/c3cc(Br)c(O)c(Br)c3)c(=O)n2C1c1ccc(Cl)cc1` (configuration not stated) registered an LD50 of 12.7 mg/kg.

With `CC(C)(C)c1cc(Cl)cc(C(=O)Nc2ccc([N+](=O)[O-])cc2Cl)c1O`, in data set [1], the pKa worked out at 5.8.

Consider `CCCCCCCCCCCC[P+](c1ccccc1)(c1ccccc1)c1ccccc1`, for which the values for the Activity in data set [12] and in [13] were 24% and 12%, respectively.

`N#CC(C#N)=NNc1ccc(OC(F)(F)F)cc1`: the pKa in data set [1] turned out to be 6.2. Moreover, the EC50 in data set [14] was 40 nM. Besides, the LD50 in data set [15] stood at 8 mg/kg.

In the case of `N#CC(C#N)=NNc1cccc(Cl)c1` [CARBONYL CYANIDE M-CHLOROPHENYLHYDRAZONE], the EC50 in [14] was 100 nM.

`O=[N+]([O-])c1ccc(OCc2ccc(OCCCC[P+](c3ccccc3)(c3ccccc3)c3ccccc3)cc2[N+](=O)[O-])c([N+](=O)[O-])c1` came in with an Activity in [16] above 5 µM.

In data set [1], `FC(F)(F)c1nc2c(Cl)c(Cl)c(Cl)c(Cl)c2[nH]1` yielded a pKa of 5.04 to 5.6. In [10], this compound yielded an LD50 of 1.6 mg/kg.

`NCCO.O=C(Nc1ccc([N+](=O)[O-])cc1Cl)c1cc(Cl)ccc1O` returned an LD50 in data set [5] of 500 mg/kg.

For the compound `CC(C)(C)c1cc(C=C(C#N)C#N)cc(C(C)(C)C)c1O` [TYRPHOSTIN A9], the IC50 is above 200 nM in data set [17] and above 970 nM in data set [18]. Besides, the pKa in data set [1] stood at 6.7. The same compound returned an LD50 in [19] of 29 mg/kg.

`CCCCOC(=O)c1ccccc1-c1c2cc(C)/c(=N\CC)cc-2oc2cc(NCC)c(C)cc12`: the Activity is reported as 20% in data set [20] and 19% in data set [22]. Besides, the EC50 in data set [21] was 1000 nM. The pKa in data set [1] was found to be 7.3.

By pKa is commonly meant the negative logarithm of the acid dissociation constant. Broadly, the LD50 is the dose at which mortality reaches 50%. One may read the IC50 as the concentration needed to halve the response being measured. By EC50 is commonly meant the midpoint of the concentration-response curve.
